Measured values taken from US4329347A, “Cardiotonic and antithrombotic sulfur-containing derivatives of carbostyril” (Boehringer Ingelheim GmbH, priority 1978, dated 1982).
pEC50, pIC50: −log10 of the molar value. Like-named read-outs stand apart in the source and are kept apart here.

Columns and labels:
auricles (rat heart) = assay: Positive inotropic activity on isolated rat auricles; parameters: species or system rats; conditions: 1×10^-5 gm/ml, 30° C., from the starting values, read-out: % Increase in Force of Contraction
Experimental: Rats were anesthetized with ether and subsequently killed by a blow on the neck. After opening the thorax, the heart was removed and both auricles were separated. The auricles were put into an organ bath of 100 ml containing a tyrode solution at a temperature of 30° C. The tyrode solution was infused with carbogen (95% of O2 and 5% of CO2). The spontaneous contractions of the auricles were registered isometrically. The auricles were weighted with 1 gm. The compounds in question were tested on 4 auricles each at 1×10^-5 gm/ml. The alteration of the contraction force was registered in % from the starting values.

[1] = test system: phosphodiesterase (PDE), supernatant of human blood platelets; assay: PDE inhibition (3H-cAMP hydrolysis); assay type: biochemical; conditions: human blood platelet PDE, 1 μmol/liter 3H-cAMP, pH 7.4, 15 minutes, 37° C.
Experimental: cAMP is hydrolysed to AMP by phosphodiesterase (PDE) from various sources, including blood platelets. This hydrolysis is inhibited by PDE inhibitors according to the concentration.
The phosphodiesterase used was the 10,000×g supernatant of human blood platelets which had been frozen with water and thawed out again.
An amount of 0.3 ml of a mixture which contained 0.1 mole/liter of trihydroxy-aminomethane (pH 7.4), 3 mmole/liter of magnesium chloride, 1 mmole/liter of AMP, 1 μmol/liter of ^3 H-cAMP (specific activity about 10 MBq/μmol), PDE as well as the substance to be tested and water for the control were incubated for 15 minutes at 37° C.
The incubation was stopped by the addition of 0.5 ml of zinc sulfate (0.266 mole/liter) and 0.5 ml of barium hydroxide (0.266 mole/liter), the precipitate was centrifuged and the activity remaining in the supernatant of the unreacted ^3 H-cAMP was determined. From a comparison of the substance preparations and the control preparations, the concentration for a 50% inhibiting activity (IC50) of the respective substance was calculated.

[2] = test system: thrombocyte aggregation in platelet-rich plasma of healthy human donors; assay: Thrombocyte aggregation inhibiting activity by the method of Born and Cross (platelet-rich plasma); assay type: cell-based; conditions: optical density
Experimental: 1. Determination of the thrombocyte aggregation inhibiting activity by the method of Born and Cross [J. Physiol. 170, 397 (1964)]:
The thrombocyte aggregation was measured in the platelet-rich plasma of healthy human donors. The decrease in optical density was measured and recorded photometrically after the addition of adenosine diphosphate or collagen. From the angle of inclination of the density curve, the rate of aggregation was estimated (Vmax). The optical density was taken as the point on the curve where the most light was transmitted (O.D.).
The EC50 values in the tables indicate the optical density.
Small doses of collagen were chosen, but sufficient to give irreversible aggregation. To provoke maximum aggregation, about 0.01 ml of the collagen solution was added to 1 ml of platelet-rich plasma. (Commercial collagen of Hormonchemie, Munich). The adenosine diphosphate (ADP) doses were chosen to give only the first phase of the BORN curve. The necessary amount of ADP was about 1×10^-6 mol/l. Commercial ADP of Boehringer Mannheim was used.
The substance dose which produced a 50% inhibition of the thrombozytes aggregation (EC50) was determined graphically.

[3] = test system: Platelet Thromboses in the Rat; assay: Influence on platelet thromboses in the rat (electrical irritation of a vein); assay type: in vivo; conditions: male rats, five animals per dose, 20 minutes observation, vs. untreated group; dose not given
Experimental: Literature: H. Poliwoda, J. Lilli, G. Hagemann, D. Schyma: Z. ges. exp. Med., 145, 252 (1968)
Male rats (body weight between 70 and 90 grams) received an intraperitoneal Nembutal anesthesia (dose: 50 to 60 mg/kg). To avoid hypothermia, they were positioned on a heated test table (about 37° C.). The respiratory passage was held free by insertion of a tracheal cannula.
After a transverse abdominal incision was made, an intestinal loop was exposed and fixed, and a vein, with a diameter of about 300 μ was prepared. A monopolar platinum electrode embedded in glass and having a tip diameter of about 100μ was applied to the vein as an irritating cathode. The indifferent electrode was applied to the same vessel opposite the cathode. The irritation was provoked by 150 volts of direct current for a period of 100 milliseconds. After the irritation, the area of observation was continuously rinsed with warm (37° C.) physiological salt solution.
The formation and growth of the thrombosis was followed under a binocular microscope over a time period of 20 minutes. During the entire period of observation, the percentage of the vessel volume closed by the thrombosis was estimated at different time intervals.
Five animals per dose were used, and the results were averaged.
In the test compound experiments, the average size of the thrombosis in the treated animal group was compared with that of an untreated animal group. The result was given as "percentage reduction of the average thrombosis size." The following table contains the values obtained.

mice = assay: Acute toxicity, oral; assay type: in vivo; conditions: single oral dose of 1,000 mg/kg, 14 days observation
Experimental: (§1) The acute toxicity of the test compounds was determined on groups of 10 mice each after oral administration of a single dose of 1,000 mg/kg (observation time: 14 days).

Acute toxicity, oral = assay type: in vivo; conditions: mouse, in vivo; mice, single oral dose, 14 days observation; read-out: Acute Toxicity per os
Experimental: as §1

conscious mice = assay: Prolongation of the bleeding time (mouse tail); assay type: in vivo; conditions: po, 10 mg/kg orally, after 1 hour, compared to control group, read-out: Prolongation of the bleeding time in % after one hour
Experimental: The function of the thrombocytes can be determined by measuring the bleeding time. The normal bleeding time in human beings is in the range of 1 to 3 minutes and needs intact thrombozytes in a sufficient number. If the number of thrombocytes is normal and the bleeding time is prolonged, this signifies a disturbed function of the thrombocytes. This is found in some congenital defects of thrombocyte function (V. Willebrand's disease, for example). If, on the other hand it is the aim to prevent spontaneous aggregation of the thrombocytes and occlusion in the arterial system by antithrombotic drugs, the bleeding time should be prolonged as a consequence. Therefore, using antithrombotic substances, a prolongation of the bleeding time is expected. If the plasma coagulation system is not influenced by such a medicine, coagulation tests will give a normal result.
To measure the bleeding time, 10 mg/kg of the test compound is administered orally to conscious mice. After 1 hour, 0.5 mm of the tip of the mousetail is cut off and droplets of blood are gently removed with filter paper every 30 second. The number of drops of blood give a measure for the bleeding time (5 animals/experiment).
The numbers in the following table represent the prolongation in % compared to the control group.

[4] = test system: thrombocytes (number in the blood after tumor cell injection); assay: Effect on tumor cell embolism: thrombocyte decrease after intravenous tumor cell injection in rats; assay type: in vivo; conditions: control 70
Excerpt: (b) By virtue of the injection of tumor cells, a strong decrease in the number of thrombocytes in the blood was produced in the test animals (rats) as a consequence of thrombocyte and tumor cell thrombocyte aggregation. […] By administration of suitable substances, the extent of the thrombocyte decrease can be reduced as compared to that of the untreated control animals.

[5] = test system: Walker-256 carcinosarcoma cells; assay: Effect on tumor cell embolism: mortality after injection of Walker-256 carcinosarcoma cells in mice; assay type: in vivo
Experimental: (a) Mice having a body weight of about 25 grams received an injection in the jugular vein of a million Walker-256 carcinosarcoma cells. These tumor cells lead to a formation of thrombocyte clumps, which causes a fatal tumor cell embolism in a portion of the animals. Under the influence of the test compounds, the number of deceased animals can be reduced. Normally, about 65% of the control animals died within 10 minutes as a result of pulmonary embolism.

[6] = ADP-induced (about 1×10^-6 mol/l), read-out: EC50 (50% inhibition of thrombocyte aggregation), ADP
[7] = collagen-induced, read-out: EC50 (50% inhibition of thrombocyte aggregation), Collagen

Row | Compound | activation at 10 µg/mL (auricles (rat heart)) [%] | pIC50 [1] | pEC50 [2, 6] | pEC50 [2, 7] | Percentage Reduction of the Average Thrombosis Size [3] [%] | animals died (acute toxicity per os) (mice) | LD50 at 336 h (Acute toxicity, oral) [mg/kg] | change in vivo at 10 mg/kg (conscious mice) [%] | % Reduction of the Number of Thrombocytes ([4]; dose 2 mg/kg) [%] | % Reduction of the Number of Thrombocytes ([4]; dose 4 mg/kg) [%] | % Reduction of the Number of Thrombocytes ([4]; dose 8 mg/kg) [%] | Percentage of Deceased Animals ([5]; 2 mg/kg p.o.) [%] | Percentage of Deceased Animals ([5]; 6 mg/kg p.o.) [%] | % Reduction of the Number of Thrombocytes ([4]; dose 6 mg/kg) [%] | % Reduction of the Number of Thrombocytes ([4]; dose 18 mg/kg) [%]
1 | O=C1CCc2cc(OCCCC[S+]([O-])c3ccccc3)ccc2N1 (stereo not shown) [B, 6-(4-Phenylsulfinyl-butoxy)-3,4-dihydro-carbostyril] | 30 | 5.72 | 4.70 | 5.40 | 23 | 0 out of 10 animals | > 1000 | 102 | – | – | – | – | – | – | –
2 | O=C1CCc2cc(OCCCCS(=O)(=O)c3ccccc3)ccc2N1 [Compound C, 6-(4-Phenylsulfonyl-butoxy)-3,4-dihydro-carbostyril] | 35 | 5.82 | 4.82 | 5.30 | – | 0 out of 10 animals | > 1000 | 26 | – | – | – | – | – | – | –
3 | O=C1CCc2cc(OCCCC[S+]([O-])c3ccccn3)ccc2N1 (stereo not shown) [E, 6-[4-(2-Pyridyl-sulfinyl)-butoxy]-3,4-dihydro-carbostyril] | 16 | 5.41 | 4.60 | 5.19 | 16 | 0 out of 10 animals | > 1000 | 152 | – | – | – | – | – | – | –
4 | O=C1CCc2cc(OCCCCS(=O)(=O)c3ccccn3)ccc2N1 [F, 6-[4-(2-Pyridyl-sulfonyl)-butoxy]-3,4-dihydro-carbostyril] | 18 | 5.42 | 4.70 | 4.70 | – | 0 out of 10 animals | > 1000 | 91 | – | – | – | – | – | – | –
5 | O=C1CCc2cc(OCCCC[S+]([O-])c3ccc(Cl)cc3)ccc2N1 (stereo not shown) [I, 6-[4-(4-Chlorophenyl-sulfinyl)-butoxy]-3,4-dihydro-carbostyril] | 52 | 6.10 | 5.00 | 5.40 | 4 | 0 out of 10 animals | > 1000 | > 300 | – | – | – | – | – | – | –
6 | O=C1CCc2cc(OCCCC[S+]([O-])c3ccc4ccccc4c3)ccc2N1 (stereo not shown) [L, 6-[4-(2-Naphthyl-sulfinyl)-butoxy]-3,4-dihydro-carbostyril] | 63 | 6.85 | 5.00 | 6.00 | – | 0 out of 10 animals | > 1000 | 15 | – | – | – | – | – | – | –
7 | COc1ccccc1[S+]([O-])CCCCOc1ccc2c(c1)CCC(=O)N2 (stereo not shown) [M, 6-[4-(2-Methoxyphenyl-sulfinyl)-butoxy]-3,4-dihydro-carbostyril] | 65 | 6.82 | 4.66 | 5.40 | – | 0 out of 10 animals | > 1000 | 27 | – | – | – | – | – | – | –
8 | Cc1cc(=O)[nH]c2ccc(OCCCC[S+]([O-])c3ccccc3)cc12 (stereo not shown) [Q, 4-Methyl-6-(4-phenylsulfinyl-butoxy)-carbostyril] | 58 | 6.19 | 4.40 | 5.44 | 22 | 0 out of 10 animals | > 1000 | 39 | – | – | – | – | – | – | –
9 | O=C1CCc2cc(OCCCC[S+]([O-])c3cc(Cl)ccc3Cl)ccc2N1 (stereo not shown) [S, 6-[4-(2,5-Dichlorophenyl-sulfinyl)-butoxy]-3,4-dihydro-carbostyril] | 83 | 5.68 | 5.00 | 6.00 | – | 0 out of 10 animals | > 1000 | – | – | – | – | – | – | – | –
10 | O=c1ccc2cc(OCCCCS(=O)(=O)c3ccccn3)ccc2[nH]1 [T, 6-[4-(2-Pyridyl-sulfonyl)-butoxy]-carbostyril] | 32 | 6.00 | 5.22 | 7.00 | 29 | 0 out of 10 animals | > 1000 | 5 | 29 | 15 | 1.1 | 23 | 6.7 | – | –
11 | O=C1CCc2cc(OCCCC[S+]([O-])c3ccc(Cl)c(Cl)c3)ccc2N1 (stereo not shown) [U, 6-[4-(3,4-Dichlorophenyl-sulfinyl)-butoxy]-3,4-dihydro-carbostyril] | – | 6.57 | 4.82 | 5.40 | 32 | 0 out of 10 animals | > 1000 | 33 | 34 | – | – | 40 | 13 | 20.8 | 1.1
